According to ChEMBL document CHEMBL3593192, “Synthesis and biological evaluation of novel histone deacetylases inhibitors with nitric oxide releasing activity” (Bioorg Med Chem, 2015):
pIC50: −log10 of the molar value. Active and inactive are the calls of the source. The rule behind the calls is not given here.

Tests used:
[1] = biological target: Histone deacetylase (HDAC1 and HDAC2) (Homo sapiens, UniProt Q13547+Q92769); assay: Inhibition of HDAC1/2 in human HeLa cells using Boc-Lys (acetyl)-AMC as substrate preincubated for 30 mins followed by substrate addition measured after 30 mins by fluorescence assay; format: cell-based
HCT-116 [2] = assay: cells; format: functional, cell-based; settings: Homo sapiens, HCT-116, 48 h
U-937 = assay: Cytotoxicity against human U937 cells assessed as inhibition of cell proliferation after 48 hrs by MTT assay; format: functional, cell-based; settings: U-937, 48 h
B16 = assay: cells; format: functional, cell-based; settings: Mus musculus, B16, 48 h
Description: Cytotoxicity against mouse B16 cells assessed as inhibition of cell proliferation after 48 hrs by MTT assay

PC-3 = assay: cells; format: functional, cell-based; settings: Homo sapiens, PC-3, 48 h
Description: Cytotoxicity against human PC3 cells assessed as inhibition of cell proliferation after 48 hrs by MTT assay

HeLa = assay: cells; format: functional, cell-based; settings: Homo sapiens, 48 h
Description: Cytotoxicity against human HeLa cells assessed as inhibition of cell proliferation after 48 hrs by MTT assay

HEL = assay: cells; format: functional, cell-based; settings: Homo sapiens, 48 h
Description: Cytotoxicity against HEL cells assessed as inhibition of cell proliferation after 48 hrs by MTT assay

cells [3] = format: functional, cell-based; settings: Homo sapiens, KG-1, 48 h
Description: Cytotoxicity against human KG1 cells assessed as inhibition of cell proliferation after 48 hrs by MTT assay

cells [4] = format: functional, cell-based, ES2; settings: Homo sapiens, ES-2, 48 h
Description: Cytotoxicity against human ES2 cells assessed as inhibition of cell proliferation after 48 hrs by MTT assay

HCT-116 [5] = assay: Induction of nitric oxide production in human HCT116 cells at 100 uM after 5 hrs by Griess assay; format: functional, cell-based
HCT-116 [6] = assay: Cytotoxicity against human HCT116 cells assessed as inhibition of cell proliferation after 48 hrs by MTT assay in presence of SAHA; format: functional, cell-based; settings: HCT-116, 48 h
HCT-116 [7] = assay: Cytotoxicity against nitric oxide scavenger hemoglobin-treated human HCT116 cells assessed as inhibition of cell proliferation at 2 uM after 24 hrs by MTT assay; format: functional, cell-based

Row | IC50 [1] [µM] | pIC50 (HCT-116 [2]) | pIC50 (B16) | pIC50 (PC-3) | pIC50 (HeLa) | pIC50 (HEL) | pIC50 (cells [3]) | pIC50 (cells [4]) | SMILES | pIC50 (U-937) | Activity (HCT-116 [5]) | pIC50 (HCT-116 [6]) | inhibition (HCT-116 [7])
1 | 0.437 | 5.47 | 4.52 | 4.91 | 4.76 | 4.94 | 5.43 | 4.69 | O=C(CCCCCOC(=O)c1ccc2c(c1)no[n+]2[O-])NO | 4.48 | Active | – | –
2 | > 1000 | 4.25 | – | – | – | – | – | – | O=C(O)c1ccc2c(c1)no[n+]2[O-] | – | Active | 4.94 | –
3 | 0.017 | 5.55 | 4.55 | 4.77 | 4.38 | 5.43 | 4.91 | 4.18 | O=C(CCCCCOC(=O)c1cccc2c1no[n+]2[O-])NO | 4.67 | Active | – | –
4 | > 1000 | 4.19 | – | – | – | – | – | – | O=C(O)c1cccc2c1no[n+]2[O-] | – | Active | 5.07 | –
5 | 0.0184 | 5.96 | 5.30 | 6.02 | 5.04 | 5.90 | 6.43 | 5.29 | O=C(CCCCCCOC(=O)c1ccc2c(c1)no[n+]2[O-])NO | 4.91 | Active | – | inactive
6 | 2.207 | 5.58 | 4.62 | 4.90 | 4.80 | 5.92 | 5.09 | 4.60 | O=C(CCCCOC(=O)c1ccc2c(c1)no[n+]2[O-])NO | 4.70 | – | – | –
7 | 5.5697 | 5.69 | 4.65 | 5.18 | 4.77 | 5.68 | 5.40 | 4.57 | O=C(CCCOC(=O)c1ccc2c(c1)no[n+]2[O-])NO | 4.88 | – | – | –
8 | – | – | – | – | – | – | – | – | O=C(CCCCCCC(=O)Nc1ccccc1)NO [VORINOSTAT] | 5.32 | – | – | –
9 | 0.1804 | 5.64 | 5.10 | 5.86 | 5.27 | 5.82 | 5.28 | 5.03 | O=C(CCCCCCCOC(=O)c1ccc2c(c1)no[n+]2[O-])NO | 4.93 | Active | – | –
10 | 6.8072 | 4.79 | < 4.10 | 4.87 | 4.14 | 5.18 | 4.91 | 4.13 | O=C(CCCOC(=O)c1cccc2c1no[n+]2[O-])NO | 4.27 | – | – | –
11 | 0.1373 | < 4.10 | < 4.10 | < 4.10 | 4.47 | 4.92 | 6.28 | < 4.10 | O=C(CCCCCCCOC(=O)c1cccc2c1no[n+]2[O-])NO | < 4.10 | – | – | –
12 | 0.0128 | 5.96 | 4.74 | 5.03 | 4.57 | 5.43 | 5.53 | 4.67 | O=C(CCCCCCOC(=O)c1cccc2c1no[n+]2[O-])NO | 4.46 | Active | – | inactive
13 | 0.2576 | 5.56 | 4.52 | 4.85 | 4.69 | 5.50 | 5.17 | 4.35 | O=C(CCCCOC(=O)c1cccc2c1no[n+]2[O-])NO | 4.95 | – | – | –
